US9557338B2 (SIGNAL PHARMACEUTICALS, LLC, priority 2012, dated 2017)
Where two headings read alike, the source gives them in different places.

Key:
Type in all cases: cell-based
p70S6K = assay: Luminex multiplex assay, p70S6K phosphorylation in cell lysates
Source text: (§1) The multiplex Luminex assay format differs from conventional enzyme-linked immunosorbent assay (ELISA) in that the multiplex capture antibody is attached to a polystyrene bead whereas the ELISA capture antibody is attached to the microplate well. The use of the suspension bead-based technology enables the multiplexing capabilities of the Luminex assays. The xMAP® technology uses 5.6 micron polystyrene microspheres, which are internally dyed with red and infrared fluorophores of differing intensities. Each bead is given a unique number, or bead region, allowing differentiation of one bead from another. Beads covalently bound to different specific antibodies can be mixed in the same assay, utilizing a 96-well microplate format. At the completion of the sandwich immunoassay, beads can be read, using the Luminex 100™ or Luminex 200 detection system, in single-file by dual lasers for classification and quantification of each analyte. The Akt-Pathway Phospho 5-plex kit used was custom made and includes the ability to simultaneously measure p-GSK3β (S9), p-PRAS40(T246), and p-4E-BP1(T46).
(§2) Cells were plated at the required density. The cells were treated with either Compound 1 or rapamycin over a range of concentrations for 1 hour in 5% CO2 at 37° C. Compound 1 and rapamycin were used at the same concentrations as for the proliferation assay. As for the cell proliferation assay, a reference standard was included in the assay for PC3 cells and the coefficient of variation for assay of p-GSK3β(S9) was 37.8% (n=30), p-PRAS40(T246) was 27.8% (n=30) and for p4E-BP1(T46) was 13.5% (n=4). For three cell lines (HCT-116, MDA-MB-231 and HT29) in the assay for phosphorylation of GSK3β, PRAS40 and 4E-BP1, IGF-I stimulation (500 ng/mL, recombinant human IGF-I) for the last 10 min of incubation was used. The media was aspirated from the wells and the plate was placed on ice. Then 35 μL of Lysis Buffer was added to each well and incubated on ice for at least 30 minutes. During the incubation, the standard curve for each phosphoprotein was prepared. The standards provided were reconstituted and serial dilutions were prepared according to the manufacturer's instructions. At the end of the cell lysis step, […] of the lysate was transferred to a V-bottom plate and spun at 4° C. at 2000 rpm for 5 minutes. Both the 1× Luminex bead and 1× detector antibody solutions were prepared during this time. The 1× bead solution was vortexed and 25 μL was added into each well of a black round bottom plate. Then 50 μL of the 1× detector antibody was added to each well. Fifty microliters (50 μL) of the prepared standards were added to the designated wells. Then 25 μL of the assay diluent was added to each well designated for the compound-treated cell lysates. At the end of the spin, 25 μL of cell lysate was added to the corresponding wells of the black assay plate. The assay plate was covered with the white plate lid and incubated for 3 hours at room temperature on an orbital shaker.
(§3) Approximately 10-15 minutes prior to the end of the first incubation, the secondary antibody solution was prepared according to the vendor's protocol. Goat anti-rabbit R-phycoerythrin red fluorescent protein (RPE) supplied as a 10× concentrate was diluted to generate a 1× goat anti-rabbit RPE stock. The 96-well filter plate was pre-wet with 200 μL of 1× Working wash solution. At the end of the 3 hour incubation, a multichannel pipette was used to transfer the entire contents from each assay well into the wells of the filter plate. The liquid from the wells was removed by aspiration with the vacuum manifold. Then 200 μL of 1× Working wash solution was added into each well. The wash solution was aspirated using the vacuum manifold after 15-30 seconds. This wash step was repeated one time. The bottom of the plate was blotted on clean paper towels to remove residual liquid. […]

Phospho-GSK3β(S9) = assay: Luminex multiplex assay, Phospho-GSK3β(S9); settings: read-out: Luminex GSK-3β
Source text: (§4) Determination of Phospho-GSK3β(S9), Phospho-PRAS40(T246) and Phospho-4E-BP1(T46) and the Effect of Compound 1 or Rapamycin.
as §1, §2, §3

Phospho-PRAS40(T246) = assay: Luminex multiplex assay, Phospho-PRAS40(T246)
Source text: as §4, §1, §2, §3

[1] = PC3 cell line, read-out: Luminex p70S6K
[2] = PC3 cell line, read-out: Luminex PRAS40

Structure (SMILES) | IC50 (p70S6K; [1]) [nM] | IC50 (Phospho-GSK3β(S9); PC3 cell line) [nM] | IC50 (Phospho-PRAS40(T246); [2]) [nM] | IC50 (p70S6K; Homo sapiens, HCT-116, HCT116 cell line, IGF, read-out: Luminex p70S6K (IGF)) [nM] | IC50 (p70S6K; Homo sapiens, U-87 MG, U87MG cell line, read-out: Luminex p70S6K) [nM] | IC50 (Phospho-GSK3β(S9); Homo sapiens, U-87 MG, U87MG cell line) [nM] | IC50 (Phospho-PRAS40(T246); Homo sapiens, HCT-116, HCT116 cell line, IGF, read-out: Luminex PRAS40 (IGF)) [nM] | IC50 (Phospho-PRAS40(T246); Homo sapiens, U-87 MG, U87MG cell line, read-out: Luminex PRAS40) [nM]
O=C1CNc2ncc(-c3cn[nH]c3)nc2N1CCC1CCOCC1 [C-94] | 209 | > 1500 | > 1500 |  |  |  |  | 
COC1CCC(N2C(=O)CNc3ncc(-c4ccc(C(C)(C)O)nc4)nc32)C1 (centres unmarked) [C-81] | 134 | > 1500 | 847 |  |  |  |  | 
Cc1cc(C(N)=O)ncc1-c1cnc2c(n1)N(CC1CCOCC1)C(=O)CN2 [C-96] | 129 | 721 | 919 |  |  |  |  | 
O=c1[nH]c2ncc(-c3ccc(C4(O)COC4)cn3)nc2n1CCC1CCOCC1 [C-77] | > 1500 | > 1500 | > 1500 |  |  |  |  | 
O=C1CNc2ncc(-c3ccc4[nH]ncc4c3)nc2N1CCC1CCOCC1 [C-62] | 33 | 568 | 349 |  |  |  |  | 
CO[C@@H]1CC[C@H](N2C(=O)CNc3ncc(-c4ccc(C(C)(C)O)nc4)nc32)C1 [C-80] | 133 | 841 | 724 |  |  |  |  | 
O=c1[nH]c2ncc(-c3ccc(C4(O)COC4)nc3)nc2n1CCC1CCOCC1 [C-76] | > 1500 | > 1500 | > 1500 |  |  |  |  | 
NC(=O)c1cccc(-c2cnc3c(n2)N(CCC2CCOCC2)C(=O)CN3)c1 [C-90] | 1330 | > 1500 | > 1500 |  |  |  |  | 
CCn1c(=O)[nH]c2ncc(-c3ccc(-c4nc[nH]n4)c(F)c3C)nc21 [A-7, 1-ethyl-6-(3-fluoro-2-methyl-4-(1H-1,2,4-triazol-3-yl)phenyl)-1H-imidazo[4,5-b]pyrazin-2(3H)-one] |  |  |  | 470 | 145 | > 5000 | 1020 | 2850
CO[C@H]1CC[C@H](N2C(=O)CNc3ncc(-c4ccc(-c5nnc[nH]5)nc4C)nc32)C1 [C-56] | 45 | 269 | 113 |  |  |  |  | 
O=C1CNc2ncc(-c3ccncc3)nc2N1CCC1CCOCC1 [C-101] | 469 | > 1500 | > 1500 |  |  |  |  | 
COC1CCC(N2CC(=O)Nc3ncc(-c4cnc(C(N)=O)cc4C)nc32)CC1 (centres unmarked) [C-82] | 467 | > 1500 | > 1500 |  |  |  |  | 
CO[C@@H]1CC[C@@H](N2C(=O)CNc3ncc(-c4ccc(-c5nnc[nH]5)nc4C)nc32)C1 [C-58] | 48 | 507 | 209 |  |  |  |  | 
COCCN1CC(=O)Nc2ncc(-c3cnc(-c4ncn[nH]4)cc3C)nc21 [C-88] | 3 | 8 | 23 |  |  |  |  | 
COC1CCC(N2CC(=O)Nc3ncc(-c4ccc(C(C)(C)O)nc4)nc32)C1 (centres unmarked) [C-23] | 207 | 1770 | 1440 |  |  |  |  | 
CC(C)(O)c1ccc(-c2cnc3c(n2)N(CCC2CCOCC2)C(=O)CN3)cn1 [C-7] | 34 | 179 | 140 |  |  |  |  | 
CO[C@H]1CC[C@H](CN2CC(=O)Nc3ncc(-c4ccc(C(C)(C)O)nc4)nc32)C1 [C-26] | 104 | 1430 | 498 |  |  |  |  | 

Structure (SMILES) | IC50 (p70S6K; [1]) [nM] | IC50 (Phospho-GSK3β(S9); PC3 cell line) [nM] | IC50 (Phospho-PRAS40(T246); [2]) [nM] | IC50 (p70S6K; Homo sapiens, HCT-116, HCT116 cell line, IGF, read-out: Luminex p70S6K (IGF)) [nM] | IC50 (p70S6K; Homo sapiens, U-87 MG, U87MG cell line, read-out: Luminex p70S6K) [nM] | IC50 (Phospho-GSK3β(S9); Homo sapiens, U-87 MG, U87MG cell line) [nM] | IC50 (Phospho-PRAS40(T246); Homo sapiens, HCT-116, HCT116 cell line, IGF, read-out: Luminex PRAS40 (IGF)) [nM] | IC50 (Phospho-PRAS40(T246); Homo sapiens, U-87 MG, U87MG cell line, read-out: Luminex PRAS40) [nM]
COC1CCC(CN2C(=O)CNc3ncc(-c4ccc(C(C)(C)O)nc4)nc32)CC1 (centres unmarked) [C-42] | 16 | 268 | 44 |  |  |  |  | 
CC(C)(O)c1ccc(-c2cnc3c(n2)N(CCC2CCOCC2)CC(=O)N3)cn1 [C-4] | 134 | 1110 | 678 |  |  |  |  | 
O=C1CN(CCC2CCOCC2)c2nc(-c3ccc(-c4nnc[nH]4)c(F)c3)cnc2N1 [C-18] | 4 | 37 | 27 |  |  |  |  | 
COCCN1C(=O)CNc2ncc(-c3cccc4[nH]ncc34)nc21 [C-109] | 367 | > 1500 | > 1500 |  |  |  |  | 
NC(=O)c1cccc(-c2cnc3c(n2)N(CCC2CCOCC2)CC(=O)N3)c1 [C-84] | > 1500 | > 1500 | > 1500 |  |  |  |  | 
COC1CCC(N2CC(=O)Nc3ncc(-c4ccc(-c5nnc[nH]5)nc4C)nc32)C1 (centres unmarked) [C-51] | 46 | 859 | 816 |  |  |  |  | 
COCCn1c(=O)[nH]c2ncc(-c3cnc4[nH]ccc4c3)nc21 [C-43] | 201 | 214 | 524 |  |  |  |  | 
CO[C@@H]1CC[C@H](N2CC(=O)Nc3ncc(-c4ccc(C(C)(C)O)nc4)nc32)C1 [C-28] | 452 | > 5000 | 2360 |  |  |  |  | 
COc1ccc(-c2cnc3c(n2)N(CCC2CCOCC2)C(=O)CN3)cn1 [C-105] | 252 | > 1500 | > 1500 |  |  |  |  | 
COCCN1CC(=O)Nc2ncc(-c3ccc(-c4nnc[nH]4)c(F)c3C)nc21 [C-32] | 12 | 169 | 59 |  |  |  |  | 
COC1CCC(N2C(=O)CNc3ncc(-c4ccc(C(C)(C)O)nc4)nc32)C1 (centres unmarked) [C-78] | 1290 | > 1500 | > 1500 |  |  |  |  | 
COCCN1C(=O)CNc2ncc(-c3ccc(-c4nnc[nH]4)c(F)c3)nc21 [C-27] | 8 | 32 | 27 |  |  |  |  | 
N#Cc1cccc(-c2cnc3c(n2)N(CCC2CCOCC2)CC(=O)N3)c1 [C-83] | > 1500 | > 1500 | > 1500 |  |  |  |  | 
COC1CCC(N2CC(=O)Nc3ncc(-c4ccc(-c5nnc[nH]5)nc4C)nc32)C1 (centres unmarked) [C-52] | 88 | 1100 | 960 |  |  |  |  | 
Cc1cc(-c2nnc[nH]2)ccc1-c1cnc2c(n1)N(Cc1ccccc1)C(=O)CN2 [C-31] | 2 | > 5000 | 14 |  |  |  |  | 
CO[C@H]1CC[C@H](N2CC(=O)Nc3ncc(-c4ccc(C(C)(C)O)nc4)nc32)C1 [C-24] | 843 | > 5000 | 3660 |  |  |  |  | 
Cc1nc(-c2nnc[nH]2)ccc1-c1cnc2c(n1)N(C)C(=O)CN2 [C-99] | 11 | 348 | 274 |  |  |  |  | 
